According to ChEMBL document CHEMBL1140148, “Structure-activity studies on a series of a 2-aminopyrimidine-containing histamine H4 receptor ligands” (J Med Chem, 2008):
Converted amounts (≈) assume the structure as drawn. Each block holds one compound with its values, some of them ahead of it. The source made the active and inactive calls. The calls are words filed in the database; no cut-off is given here.

Experiments:
[1] = molecular target: T1, Histamine H4 receptor (Rattus norvegicus, UniProt Q91ZY1); experiment: (§1) Agonist activity at rat histamine H4 receptor expressed in HEK293 cells coexpressing Gqi5 protein assessed as calcium flux by FLIPR assay; type: functional, cell-based
[2] = molecular target: T2, Histamine H4 receptor (Homo sapiens, UniProt Q9H3N8); experiment: Agonist activity at human histamine H4 receptor expressed in HEK293 cells coexpressing Gqi5 protein assessed as calcium flux by FLIPR assay relative to histamine; type: functional, cell-based
[3] = molecular target: Histamine H4 receptor (Rattus norvegicus) (UniProt Q91ZY1); experiment: Agonist activity at rat histamine H4 receptor expressed in HEK293 cells coexpressing Gqi5 protein assessed as calcium flux by FLIPR assay relative to histamine; type: functional, cell-based
[4] = molecular target: T2, Histamine H4 receptor; experiment: Agonist activity at human histamine H4 receptor expressed in HEK293 cells coexpressing Gqi5 protein assessed as calcium flux by FLIPR assay; type: functional, cell-based
[5] = molecular target: Histamine H4 receptor (Rattus norvegicus) (UniProt Q91ZY1); experiment: as §1; type: functional, cell-based
[6] = Plasma clearance in rat at 1 mg/kg, iv; type: ADME, organism-based; set-up: dose 1 mg/kg, route intravenous
[7] = molecular target: T1, Histamine H4 receptor; experiment: Displacement of [3H]histamine from rat histamine H4 receptor expressed in HEK293 cells; type: cell-based
[8] = system: Rattus norvegicus; experiment: Antiinflammatory activity against carrageenan-induced thermal hyperalgesia in ip dosed rat assessed as increase in paw withdrawal; type: functional
[9] = Binding affinity to T-type voltage gated calcium channel
[10] = molecular target: Histamine H3 receptor (Rattus norvegicus, UniProt Q9QYN8); experiment: Binding affinity to rat histamine H3 receptor
[11] = molecular target: 5-hydroxytryptamine receptor 1D (Homo sapiens, UniProt P28221); experiment: Binding affinity to 5HT1D receptor
[12] = system: Mus musculus; experiment: Antiinflammatory activity in zymosan-induced peritonitis in sc dosed BALB/c mouse model assessed as decrease in myeloperoxidase activity in peritoneal lavage; type: functional
[13] = Binding affinity to opioid receptor
[14] = molecular target: Cannabinoid receptor 1 (Homo sapiens, UniProt P21554); experiment: Binding affinity to cannabinoid receptor
[15] = system: Rattus norvegicus; experiment: Toxicity in rat assessed as effect on locomotor activity by rotarod test upto 300 umol/kg; type: organism-based; details: in vivo
[16] = Cmax in rat at 1 mg/kg, po; type: ADME, organism-based; set-up: dose 1 mg/kg, route oral; details: in vivo
[17] = Protein binding in ip dosed rat plasma; type: ADME, organism-based; details: read-out: PPB (converted)
[18] = molecular target: P2X purinoceptor 7 (Homo sapiens, UniProt Q99572); experiment: Binding affinity to human P2X7 channel
[19] = Cmax in mouse at 2.5 mg/kg, po; type: ADME, organism-based; set-up: dose 2.5 mg/kg, route oral; details: in vivo
[20] = Inhibition of adrenergic alpha2 receptor at 10 umol
[21] = molecular target: T1, Histamine H4 receptor; experiment: Agonist activity at rat histamine H4 receptor expressed in HEK293 cells coexpressing Gqi5 protein by GTPgammaS assay; type: functional, cell-based
[22] = molecular target: Alpha-2C adrenergic receptor (Homo sapiens, UniProt P18825); experiment: Binding affinity to adrenergic Alpha-2C receptor
[23] = Tmax in rat at 1 mg/kg, po; type: ADME, organism-based; set-up: dose 1 mg/kg, route oral; details: in vivo
[24] = system: Rattus norvegicus; experiment: Plasma concentration in rat at 100 umol/kg, ip; type: ADME, organism-based; details: in vivo
[25] = system: Rattus norvegicus; experiment: Antiinflammatory activity against carrageenan-induced thermal hyperalgesia in rat assessed as increase in paw withdrawal at 100 umol/kg, ip relative to control; type: functional
[26] = molecular target: Histamine H3 receptor (Homo sapiens, UniProt Q9Y5N1); experiment: Binding affinity to human histamine H3 receptor
[27] = Cmax in rat at 1 mg/kg, iv; type: ADME, organism-based; set-up: dose 1 mg/kg, route intravenous; details: in vivo
[28] = Half life in mouse at 2.5 mg/kg, po; type: ADME, organism-based; set-up: dose 2.5 mg/kg, route oral; details: in vivo
[29] = molecular target: P2X purinoceptor 7 (Mus musculus, UniProt Q9Z1M0); experiment: Binding affinity to mouse P2X7 channel
[30] = Binding affinity to cyclooxygenase
[31] = Plasma concentration in rat at 30 umol/kg, ip after 30 mins; type: ADME, organism-based
[32] = molecular target: T3, 5-hydroxytryptamine receptor 7 (Homo sapiens, UniProt P34969); experiment: Binding affinity to 5HT7 receptor
[33] = molecular target: T4, 5-hydroxytryptamine receptor 1A (Homo sapiens, UniProt P08908); experiment: Binding affinity to 5HT1A receptor
[34] = molecular target: 5-hydroxytryptamine receptor 1B (Homo sapiens) (UniProt P28222); experiment: Inhibition of 5HT1B receptor at 10 umol
[35] = Binding affinity to NMDA receptor
[36] = molecular target: 5-hydroxytryptamine receptor 2C (Homo sapiens, UniProt P28335); experiment: Binding affinity to 5HT2C receptor
[37] = Drug level in rat brain at 30 umol/kg, ip after 30 mins; type: ADME, organism-based; details: read-out: Drug uptake
[38] = molecular target: 5-hydroxytryptamine receptor 1A (Homo sapiens) (UniProt P08908); experiment: Inhibition of 5HT1A receptor at 10 umol
[39] = molecular target: Histamine H4 receptor (Mus musculus) (UniProt Q91ZY2); experiment: Agonist activity at mouse histamine H4 receptor expressed in HEK293 cells coexpressing Gqi5 protein assessed as calcium flux by FLIPR assay relative to histamine; type: functional, cell-based
[40] = Cmax in mouse at 2.5 mg/kg, iv; type: ADME, organism-based; set-up: dose 2.5 mg/kg, route intravenous; details: in vivo
[41] = organism: Rattus norvegicus; experiment: Antiinflammatory activity against carrageenan-induced hyperalgesia in rat assessed as increase in paw withdrawal by measuring plasma free fraction potency; type: functional, organism-based
[42] = Bioavailability in mouse at 2.5 mg/kg, po; type: ADME, organism-based; details: in vivo
[43] = Tmax in mouse at 2.5 mg/kg, po; type: ADME, organism-based; set-up: dose 2.5 mg/kg, route oral; details: in vivo
[44] = Plasma concentration in mouse at 25 umol/kg, ip after 30 mins; type: ADME, organism-based
[45] = Plasma clearance in mouse at 2.5 mg/kg, iv; type: ADME, organism-based; set-up: dose 2.5 mg/kg, route intravenous
[46] = molecular target: Histamine H4 receptor (Mus musculus, UniProt Q91ZY2); experiment: Agonist activity at mouse histamine H4 receptor expressed in HEK293 cells coexpressing Gqi5 protein assessed as calcium flux by FLIPR assay; type: functional, cell-based
[47] = Terminal volume of distribution in mouse at 2.5 mg/kg, iv; type: ADME, organism-based; set-up: dose 2.5 mg/kg, route intravenous; details: in vivo, read-out: Vbeta
[48] = Inhibition of histamine-induced shape change in BALB/c mouse BMMC by gated autofluorescence forward scatter; type: functional
[49] = molecular target: T4, 5-hydroxytryptamine receptor 1A; experiment: Agonist activity at 5HT1A receptor expressed in CHO cells by GTPgammaS binding assay; type: functional, cell-based
[50] = Binding affinity to neuronal nicotine receptor
[51] = molecular target: 5-hydroxytryptamine receptor 1A (Homo sapiens) (UniProt P08908); experiment: Agonist activity at 5HT1A receptor expressed in CHO cells by GTPgammaS binding assay relative to serotonin; type: functional, cell-based
[52] = Bioavailability in rat at 1 mg/kg, po; type: ADME, organism-based; details: in vivo
[53] = molecular target: Alpha-2A adrenergic receptor (Homo sapiens, UniProt P08913); experiment: Binding affinity to adrenergic alpha2A receptor
[54] = system: Rattus norvegicus; experiment: Antiinflammatory activity against carrageenan-induced thermal hyperalgesia in rat assessed as increase in paw withdrawal at 30 umol/kg, ip relative to control; type: functional
[55] = system: Mus musculus; experiment: Antiinflammatory activity in ip dosed CD1/ICR mouse assessed as reduction of clobenpropit-induced itching; type: functional
[56] = Terminal volume of distribution in rat at 1 mg/kg, iv; type: ADME, organism-based; set-up: dose 1 mg/kg, route intravenous; details: in vivo, read-out: Vbeta
[57] = molecular target: T3, 5-hydroxytryptamine receptor 7; experiment: Inhibition of 5HT7 receptor at 10 umol
[58] = molecular target: T5, 5-hydroxytryptamine receptor 2A (Homo sapiens, UniProt P28223); experiment: Inhibition of 5HT2A receptor at 10 umol
[59] = system: Rattus norvegicus; experiment: Plasma concentration in carrageenan-induced rat at 10 umol/kg, ip; type: ADME, organism-based; details: in vivo
[60] = system: Mus musculus; experiment: Antiinflammatory activity in ip dosed CD1/ICR mouse assessed as reduction of clobenpropit-induced itching at 0.1 to 10 umol administered into scruff of neck; type: functional, organism-based
[61] = molecular target: T5, 5-hydroxytryptamine receptor 2A; experiment: Binding affinity to 5HT2A receptor
[62] = system: Rattus norvegicus; experiment: Plasma concentration in rat at 30 umol/kg, ip; type: ADME, organism-based; details: in vivo
[63] = molecular target: T2, Histamine H4 receptor; experiment: Displacement of [3H]histamine from human histamine H4 receptor expressed in HEK293 cells; type: cell-based
[64] = system: Brain; experiment: Drug level in rat brain assessed as metabolism to 4-(2-amino-6-(piperazin-1-yl)pyrimidin-4-yl)benzonitrile at 30 umol/kg, ip; type: ADME, organism-based; details: in vivo
[65] = molecular target: T2, Histamine H4 receptor; details: HEK293

T1 sequence (Q91ZY1 whole entry): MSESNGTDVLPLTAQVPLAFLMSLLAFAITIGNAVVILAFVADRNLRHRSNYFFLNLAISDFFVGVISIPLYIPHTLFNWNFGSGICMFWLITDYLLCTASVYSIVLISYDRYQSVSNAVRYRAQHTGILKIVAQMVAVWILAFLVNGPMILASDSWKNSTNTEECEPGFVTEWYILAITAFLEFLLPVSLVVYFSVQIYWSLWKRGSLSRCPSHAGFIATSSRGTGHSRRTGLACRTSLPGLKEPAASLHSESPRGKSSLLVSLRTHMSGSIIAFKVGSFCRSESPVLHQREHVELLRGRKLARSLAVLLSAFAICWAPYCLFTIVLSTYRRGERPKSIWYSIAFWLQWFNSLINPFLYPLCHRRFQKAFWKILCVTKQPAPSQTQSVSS
Sequence of Histamine H4 receptor (Rattus norvegicus) (Q91ZY1 whole entry): as above
T3 sequence (P34969 whole entry): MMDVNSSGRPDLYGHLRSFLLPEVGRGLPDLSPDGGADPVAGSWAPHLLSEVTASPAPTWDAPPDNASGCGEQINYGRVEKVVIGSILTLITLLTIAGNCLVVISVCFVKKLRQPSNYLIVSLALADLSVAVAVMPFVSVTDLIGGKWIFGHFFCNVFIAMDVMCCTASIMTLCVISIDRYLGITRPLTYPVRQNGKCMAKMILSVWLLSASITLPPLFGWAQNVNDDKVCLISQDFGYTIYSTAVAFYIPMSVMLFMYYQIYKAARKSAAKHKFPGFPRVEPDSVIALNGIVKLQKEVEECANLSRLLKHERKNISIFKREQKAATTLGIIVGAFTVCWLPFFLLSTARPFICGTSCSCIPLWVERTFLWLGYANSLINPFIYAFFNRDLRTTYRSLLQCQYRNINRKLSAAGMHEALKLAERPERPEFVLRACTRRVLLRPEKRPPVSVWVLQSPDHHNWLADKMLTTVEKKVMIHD
Sequence of Histamine H3 receptor (Rattus norvegicus, UniProt Q9QYN8) (Q9QYN8 whole entry): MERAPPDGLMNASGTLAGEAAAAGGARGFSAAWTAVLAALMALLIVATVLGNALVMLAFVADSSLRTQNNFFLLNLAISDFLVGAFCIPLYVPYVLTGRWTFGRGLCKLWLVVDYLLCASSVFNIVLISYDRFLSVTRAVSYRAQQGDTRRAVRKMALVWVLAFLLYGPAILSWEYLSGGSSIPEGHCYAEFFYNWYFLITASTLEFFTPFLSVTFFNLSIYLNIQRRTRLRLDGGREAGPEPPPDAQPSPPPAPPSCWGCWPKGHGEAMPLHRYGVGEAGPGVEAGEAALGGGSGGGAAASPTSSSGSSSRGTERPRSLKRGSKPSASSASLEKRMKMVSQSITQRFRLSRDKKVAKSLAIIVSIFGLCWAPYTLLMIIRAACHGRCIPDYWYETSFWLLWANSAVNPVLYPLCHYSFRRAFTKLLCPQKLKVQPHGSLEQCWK
T4 sequence (P08908 whole entry): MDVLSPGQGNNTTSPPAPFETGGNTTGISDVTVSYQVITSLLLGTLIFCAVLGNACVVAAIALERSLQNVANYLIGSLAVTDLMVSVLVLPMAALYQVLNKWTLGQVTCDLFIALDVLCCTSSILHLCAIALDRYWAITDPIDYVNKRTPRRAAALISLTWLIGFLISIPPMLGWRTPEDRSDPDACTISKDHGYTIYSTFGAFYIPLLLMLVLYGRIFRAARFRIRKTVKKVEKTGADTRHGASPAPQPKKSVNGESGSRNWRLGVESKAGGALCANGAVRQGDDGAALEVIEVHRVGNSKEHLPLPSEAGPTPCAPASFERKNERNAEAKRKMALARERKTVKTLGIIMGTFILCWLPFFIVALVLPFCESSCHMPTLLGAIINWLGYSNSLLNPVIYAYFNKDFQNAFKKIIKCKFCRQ
Sequence of 5-hydroxytryptamine receptor 1A (Homo sapiens) (P08908 whole entry): as above
T5 sequence (P28223 whole entry): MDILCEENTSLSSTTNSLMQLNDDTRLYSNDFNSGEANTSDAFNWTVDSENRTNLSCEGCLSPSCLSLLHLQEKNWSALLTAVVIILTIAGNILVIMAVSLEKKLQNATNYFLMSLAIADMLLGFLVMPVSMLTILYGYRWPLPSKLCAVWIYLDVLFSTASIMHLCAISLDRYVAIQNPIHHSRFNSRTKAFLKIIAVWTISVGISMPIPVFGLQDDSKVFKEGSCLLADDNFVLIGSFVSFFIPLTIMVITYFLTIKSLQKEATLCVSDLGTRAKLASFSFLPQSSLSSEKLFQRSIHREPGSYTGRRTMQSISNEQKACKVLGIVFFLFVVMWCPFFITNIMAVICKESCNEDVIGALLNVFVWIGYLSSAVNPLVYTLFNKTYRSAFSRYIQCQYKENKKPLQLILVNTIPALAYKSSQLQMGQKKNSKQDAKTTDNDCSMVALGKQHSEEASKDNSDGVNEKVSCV
Sequence of Histamine H3 receptor (Homo sapiens, UniProt Q9Y5N1) (Q9Y5N1 whole entry): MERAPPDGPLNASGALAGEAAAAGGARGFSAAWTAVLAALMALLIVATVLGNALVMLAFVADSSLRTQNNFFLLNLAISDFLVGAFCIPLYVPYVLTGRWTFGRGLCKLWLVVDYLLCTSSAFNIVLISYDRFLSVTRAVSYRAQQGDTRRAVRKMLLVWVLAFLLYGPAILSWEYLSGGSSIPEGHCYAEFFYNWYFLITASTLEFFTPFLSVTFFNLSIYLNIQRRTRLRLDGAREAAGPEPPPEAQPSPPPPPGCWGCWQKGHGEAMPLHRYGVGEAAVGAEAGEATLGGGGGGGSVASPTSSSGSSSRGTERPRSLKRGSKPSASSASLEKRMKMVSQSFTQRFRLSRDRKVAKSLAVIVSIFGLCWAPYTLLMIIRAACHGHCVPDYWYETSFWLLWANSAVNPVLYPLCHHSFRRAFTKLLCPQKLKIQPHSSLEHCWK
Sequence of Histamine H4 receptor (Mus musculus, UniProt Q91ZY2) (Q91ZY2 whole entry): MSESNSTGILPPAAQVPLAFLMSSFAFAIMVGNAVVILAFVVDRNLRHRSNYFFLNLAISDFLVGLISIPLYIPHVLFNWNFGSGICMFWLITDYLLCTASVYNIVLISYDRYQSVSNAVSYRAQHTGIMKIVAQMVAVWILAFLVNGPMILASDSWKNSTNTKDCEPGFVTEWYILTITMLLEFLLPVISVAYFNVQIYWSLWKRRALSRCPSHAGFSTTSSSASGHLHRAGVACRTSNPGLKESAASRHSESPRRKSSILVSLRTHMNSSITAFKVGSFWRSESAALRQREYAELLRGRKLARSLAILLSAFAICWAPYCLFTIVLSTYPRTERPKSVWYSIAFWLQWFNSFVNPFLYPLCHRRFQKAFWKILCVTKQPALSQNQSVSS
Sequence of P2X purinoceptor 7 (Homo sapiens, UniProt Q99572) (Q99572 whole entry): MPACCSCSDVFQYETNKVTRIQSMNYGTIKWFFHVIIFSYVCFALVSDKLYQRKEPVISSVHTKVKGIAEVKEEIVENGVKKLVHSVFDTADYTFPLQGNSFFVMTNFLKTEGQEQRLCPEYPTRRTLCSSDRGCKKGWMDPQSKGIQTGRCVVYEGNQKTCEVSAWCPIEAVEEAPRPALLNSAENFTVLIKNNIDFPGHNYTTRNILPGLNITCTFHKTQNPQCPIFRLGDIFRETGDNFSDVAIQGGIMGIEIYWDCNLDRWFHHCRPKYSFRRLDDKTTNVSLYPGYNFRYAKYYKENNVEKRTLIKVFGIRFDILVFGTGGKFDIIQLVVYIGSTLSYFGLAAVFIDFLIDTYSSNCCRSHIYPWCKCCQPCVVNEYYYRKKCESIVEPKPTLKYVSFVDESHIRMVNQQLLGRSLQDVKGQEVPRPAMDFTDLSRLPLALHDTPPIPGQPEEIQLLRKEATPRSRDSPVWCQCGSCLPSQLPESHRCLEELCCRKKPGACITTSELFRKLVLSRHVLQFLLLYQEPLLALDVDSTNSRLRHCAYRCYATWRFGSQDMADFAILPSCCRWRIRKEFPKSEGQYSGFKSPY
Sequence of P2X purinoceptor 7 (Mus musculus, UniProt Q9Z1M0) (Q9Z1M0 whole entry): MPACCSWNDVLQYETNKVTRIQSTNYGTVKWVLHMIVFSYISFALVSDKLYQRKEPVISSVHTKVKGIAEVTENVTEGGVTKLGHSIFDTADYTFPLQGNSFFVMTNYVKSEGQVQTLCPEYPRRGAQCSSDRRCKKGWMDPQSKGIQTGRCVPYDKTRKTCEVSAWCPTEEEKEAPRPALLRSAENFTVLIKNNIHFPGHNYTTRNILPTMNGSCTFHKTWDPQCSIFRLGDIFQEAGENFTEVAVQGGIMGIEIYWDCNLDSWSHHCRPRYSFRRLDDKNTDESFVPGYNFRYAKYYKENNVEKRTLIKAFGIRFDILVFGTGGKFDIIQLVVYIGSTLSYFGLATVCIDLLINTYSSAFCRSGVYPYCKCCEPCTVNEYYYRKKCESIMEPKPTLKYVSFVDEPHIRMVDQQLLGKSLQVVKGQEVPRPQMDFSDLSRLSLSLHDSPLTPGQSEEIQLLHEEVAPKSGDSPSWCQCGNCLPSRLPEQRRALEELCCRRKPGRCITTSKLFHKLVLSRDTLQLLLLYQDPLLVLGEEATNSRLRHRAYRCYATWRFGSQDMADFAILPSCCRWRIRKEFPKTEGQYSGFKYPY
Sequence of Cannabinoid receptor 1 (P21554 whole entry): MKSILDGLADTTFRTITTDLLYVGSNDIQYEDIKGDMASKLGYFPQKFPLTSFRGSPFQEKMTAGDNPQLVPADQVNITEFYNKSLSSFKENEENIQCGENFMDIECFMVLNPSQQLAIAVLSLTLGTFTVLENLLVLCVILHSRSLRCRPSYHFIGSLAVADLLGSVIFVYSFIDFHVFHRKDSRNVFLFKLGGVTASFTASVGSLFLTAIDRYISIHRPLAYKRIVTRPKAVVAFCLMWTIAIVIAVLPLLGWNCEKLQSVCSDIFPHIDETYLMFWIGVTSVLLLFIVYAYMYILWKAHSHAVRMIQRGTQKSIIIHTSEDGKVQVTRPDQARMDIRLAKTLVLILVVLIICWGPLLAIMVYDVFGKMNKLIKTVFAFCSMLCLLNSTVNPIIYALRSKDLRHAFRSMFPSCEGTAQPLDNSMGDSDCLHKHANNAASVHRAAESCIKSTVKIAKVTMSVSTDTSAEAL
Sequence of Histamine H4 receptor (Mus musculus) (Q91ZY2 whole entry): as the sequence (Q91ZY2 whole entry) above

SMILES: CN1CCN(c2nc(N)ncc2N)CC1
EC50 [1]: 0.0427 µM
Efficacy [2]: 38%
Efficacy [3]: 88%
EC50 [4]: 0.0339 µM

SMILES: CN1CCN(c2ccnc(N)n2)CC1
EC50 [1]: 0.115 µM
Efficacy [2]: 42%
Efficacy [3]: 87%
EC50 [4]: 0.0437 µM

SMILES: CN1CCN(c2cc(-c3ccc(C#N)cc3)cc(N)n2)CC1
pKb [5]: 5.39
Efficacy [2]: 56%
EC50 [4]: 2.34 µM

SMILES: CN1CCN(c2cc(-c3ccc(C#N)cc3)nc(N)n2)CC1
clearance [6]: 10.3 L/h/kg
Ki [7]: 0.275 µM
ED50 [8]: 32 µmol/kg
IC50 [9]: > 10 µM
Ki [10]: 0.245 µM
Ki [11]: 0.12 µM
ED50 [12]: 64 µmol/kg
IC50 [13]: > 10 µM
EC50 [1]: 0.0589 µM
Ki [14]: > 10 µM
Activity [15]: Non-toxic
Cmax [16]: 0.032 µg/mL
fraction unbound [17]: 0.33
IC50 [18]: > 100 µM
Cmax [19]: 0.092 µg/mL
inhibition [20]: 92%
EC50 [21]: 4.68 µM
Ki [22]: 0.29 µM
Tmax [23]: 24 min
Cp [24]: 2.468 µg/mL
Activity [25]: 100%
Ki [26]: 1.29 µM
Cmax [27]: 0.16 µg/mL
half-life [28]: 36 min
IC50 [29]: > 100 µM
IC50 [30]: > 100 µM
concentration at 0.5 h [31]: 0.6 µg/mL
Ki [32]: 5.9 µM
Ki [33]: 0.042 µM
inhibition [34]: 86%
IC50 [35]: > 100 µM
Ki [36]: 3 µM
concentration at 0.5 h [37]: 12100 ng/g
inhibition [38]: 99%
Efficacy [39]: 54%
Cmax [40]: 0.57 µg/mL
EC50 [41]: 0.2 mg/L (≈ 0.679 µM)
bioavailability [42]: 41%
Tmax [43]: 15 min
concentration at 0.5 h [44]: 1.15 µg/mL
clearance [45]: 15.3 L/h/kg
EC50 [46]: 0.123 µM
Vd [47]: 3.9 L/kg
pKb [48]: 6.56
EC50 [49]: 1.62 µM
Ki [50]: 100 µM
Efficacy [51]: 92%
bioavailability [52]: 31%
Ki [53]: 0.074 µM
Activity [54]: 36%
ED50 [55]: 34 µmol/kg
Vd [56]: 7.1 L/kg
inhibition [57]: 53%
inhibition [58]: 71%
Cp [59]: 0.212 µg/mL
Activity [60]: inactive
Ki [61]: 4.1 µM
Cp [62]: 0.836 µg/mL

Next, values leading:

EC50 [1]: 0.389 µM
Efficacy [2]: 41%
Efficacy [3]: 77%
EC50 [4]: 0.0162 µM
SMILES: CN1CCN(c2cc(-c3c[nH]cn3)nc(N)n2)CC1

EC50 [1]: 0.0933 µM
Efficacy [2]: 32%
Efficacy [3]: 72%
EC50 [4]: 0.0269 µM
SMILES: COc1ncccc1-c1cc(N2CCN(C)CC2)nc(N)n1

Ki [7]: 0.339 µM
Ki [10]: 0.12 µM
EC50 [1]: 0.245 µM
Ki [63]: 0.0417 µM
Efficacy [3]: 67%
Ki [26]: 0.933 µM
EC50 [46]: 0.102 µM
Drug uptake [64]: 610 ng/mL
pKb [65]: 8.08
SMILES: N#Cc1ccc(-c2cc(N3CCNCC3)nc(N)n2)cc1
